Measurements published in patent US11976083B2, “Inhibitors of peptidylarginine deiminases” (Gilead Sciences, Inc., priority 2020, dated 2024).

The compounds below were run against T1, human PAD4 (Homo sapiens, UniProt Q9UM07) (assay: In vitro PAD4 BAEE biochemical assay). Details: BAEE substrate 3 mM, 5 nM PAD4, 2 mM calcium chloride; geometric mean of multiple experiments.
T1 construct: human PAD4 (NM_012387), A2-P663, was PCR amplified; His-SUMO (N, cleaved yes); made in house; host or cells: E. coli BL21(DE3)
T1 sequence (Q9UM07 2-663): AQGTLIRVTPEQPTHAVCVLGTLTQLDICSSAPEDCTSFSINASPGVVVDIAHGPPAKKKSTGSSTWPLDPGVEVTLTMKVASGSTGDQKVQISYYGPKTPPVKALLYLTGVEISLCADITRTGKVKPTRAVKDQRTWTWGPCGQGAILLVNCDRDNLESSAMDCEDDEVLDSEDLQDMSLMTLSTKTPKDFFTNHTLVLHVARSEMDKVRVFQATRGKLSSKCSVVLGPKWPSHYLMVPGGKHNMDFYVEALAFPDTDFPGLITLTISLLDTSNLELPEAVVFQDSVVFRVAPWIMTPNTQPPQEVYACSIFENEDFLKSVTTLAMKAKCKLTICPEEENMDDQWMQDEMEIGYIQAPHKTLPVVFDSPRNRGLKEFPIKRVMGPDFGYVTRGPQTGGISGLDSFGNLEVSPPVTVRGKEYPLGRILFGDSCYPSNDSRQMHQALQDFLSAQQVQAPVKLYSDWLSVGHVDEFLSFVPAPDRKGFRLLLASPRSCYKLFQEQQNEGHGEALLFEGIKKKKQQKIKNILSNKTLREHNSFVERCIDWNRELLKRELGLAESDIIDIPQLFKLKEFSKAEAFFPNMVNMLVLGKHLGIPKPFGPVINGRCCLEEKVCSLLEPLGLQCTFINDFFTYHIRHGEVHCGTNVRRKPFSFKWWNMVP
Procedure, shortened: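 Ammonia produced by BAEE deimination (3 mM substrate, 2 h, 25 °C) was read as fluorescent isoindole after o-phthalaldehyde/DTT derivatization, ex 405 nm/em 535 nm. Human PAD4 at 5 nM final, 2 mM calcium, pH 7.6 MOPS; compound preincubated 30 min. IC50s, normalized to BB-Cl-Amidine and DMSO controls, were geometric-mean averaged.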

| IC50 [nM] | SMILES |
| --- | --- |
| 32 | C[C@H]1NC(=O)C2C[C@H]2CCCCCn2c(-c3nc4cc(C(=O)N[C@H]5CNCC[C@@H]5F)cc(Cl)c4n3C)cc3ccc1nc32 (stereo partly drawn) [Example 507, 7-chloro-~{N}-[(3~ {S},4~{S})-4-fluoro-3-piperidyl]-1-methyl-2-[(2~{R},7~{R})-2-methyl-4-oxo-3,13,19-triazatetracyclo[11.5.2.0^ {5,7}.0^{16,20}]icosa-1 (19),14,16(20),17-tetraen-14-yl]benzimidazole-5-carboxamide] |
| 28 | COc1cc(C(=O)N2C[C@H](N)[C@@H]3CC[C@H]2C3)cc2nc(-c3cc4ccc5nc4n3CCCCCc3cc(F)ccc3C(=O)N[C@@H]5C)n(C)c12 [Example 900, (2~{R})-17-[5-[(1~{S),4~{R}, 5~{R})-4-amino-2-azabicyclo [3.2.1]octane-2-carbonyl]-7-methoxy-1-methyl-benzimidazol-2-yl]-8-fluoro-2-methyl-3,16,22-triazatetracyclo[14.5.2.0^ {5,10}.0^{19,23}]tricosa-1(22),5(10),6,8,17,19(23),20-heptaen-4-one] |
| 130 | COc1cc(C(=O)N2C[C@H](N)[C@@H]3CC[C@H]2C3)cc2nc(-c3cc4ccc5nc4n3CC(F)(F)CCCC[C@](C)(C(F)(F)F)C(=O)N[C@@H]5C)n(C)c12 [Example 459, (8~{S},11~{R})-17-[5-[(1~{S},4~{R},5~{R})-4-amino-2-azabicyclo[3.2.1]octane-2-carbonyl]-7-methoxy-1-methyl-benzimidazol-2-yl]-3,3-difluoro-8,11-dimethyl-8-(trifluoromethyl)-1,10,19-triazatricyclo[10.5.2.0^{15,18}]nonadeca-12(19),13,15(18),16-tetraen-9-one] |
| 109 | COc1cc(C(=O)N2CC[C@@H](OC)[C@@H](N)C2)cc2nc(-c3cc4ccc5nc4n3CCCCCc3cc(Cl)cnc3C(=O)N[C@@H]5C)n(C)c12 [Example 783, (2~{R})-17-[5-[(3~{S},4~{R})-3-amino-4-methoxy-piperidine-1-carbonyl]-7-methoxy-1-methyl-benzimidazol-2-yl]-8-chloro-2-methyl-3,6,16,22-tetrazatetracyclo[14.5.2.0^ {5,10}.0^{19,23}] tricosa-1(21),5(10),6,8,17,19, 22-heptaen-4-one] |
| 36 | COc1cc(C(=O)N2CCC[C@@H](N)[C@H]2C)cc2nc(-c3cc4ccc5c(F)c4n3CCCCCCC(C)(C)C(=O)N[C@@H]5C)n(C)c12 [Example 645, (11~{R})-17-[5-[(2~{R},3~ {R})-3-amino-2-methyl-piperidine-1-carbonyl]-7-methoxy-1-methyl-benzimidazol-2-yl]-19-fluoro-8,8,11-trimethyl-1,10-diazatricyclo [10.5.2.0^{15,18}]nonadeca-12(19),13,15(18),16-tetraen-9-one] |
| 59 | C[C@H]1NC(=O)c2cc3ccccc3nc2CCCCCn2c(-c3nc4cc(C(=O)N5C[C@H](N)[C@@H]6CC[C@H]5C6)c(F)c(F)c4n3C3CC3)cc3ccc1nc32 [Example 754, (2~{R})-21-[5-[(1~{S},4~ {R},5~{R})-4-amino-2-azabicyclo[3.2.1]octane-2-carbonyl]-1-cyclopropyl-6,7-difluoro-benzimidazol-2-yl]-2-methyl-3,13,20,26-tetrazapentacyclo[18.5.2.0^ {5,14}.0^{7,12}.0^{23,27}] heptacosa-1(26),5(14),6,8, 10,12,21,23(27),24-nonaen-4-one] |
| 13 | COc1cc(C(=O)N2C[C@H](N)[C@@H]3CC[C@H]2C3)cc2nc(-c3cc4ccc5nc4n3CCCCCC[C@@H](c3ccccn3)C(=O)N[C@@H]5C)n(C)c12 [Example 891, (8~{S),11~{R})-17-[5-[(1~{S},4~{R},5~{R})-4-amino-2-azabicyclo[3.2.1]octane-2-carbonyl]-7-methoxy-1-methyl-benzimidazol-2-yl]-11-methyl-8-(2-pyridyl)-1,10,19-triazatricyclo[10.5.2.0^ {15,18}]nonadeca-12(19), 13,15(18),16-tetraen-9-one] |
| 64 | COc1cc(C(=O)N2CC[C@@H](OC(F)F)[C@@H](N)C2)cc2nc(-c3cc4ccc5nc4n3CC(F)(F)CCC[C@@H]3C[C@H]3C(=O)N[C@@H]5C)n(C)c12 [Example 850, (2~{R},5~{R},7~{R})-14-[5-[(3~{S},4~{R})-3-amino-4-(difluoromethoxy)piperidine-1-carbonyl]-7-methoxy-1-methyl-benzimidazol-2-yl]-11,11-difluoro-2-methyl-3,13,19-triazatetracyclo[11.5.2.0^ {5,7}.0^{16,20}]icosa-1(19), 14,16(20),17-tetraen-4-one] |
| 163 | COc1cc(C(=O)N2CC[C@@H](OC)[C@@H](N)C2)cc2nc(-c3cc4ccc5nc4n3CC(F)(F)CCCC(C)(C)C(=O)N[C@@H]5C)n(C)c12 [Example 587, (10~{R})-16-[5-[(3~{S},4~ {R})-3-amino-4-methoxy-piperidine-1-carbonyl]-7-methoxy-1-methyl-benzimidazol-2-yl]-3,3-difluoro-7,7,10-trimethyl-1,9,18-triazatricyclo[9.5.2.0^ {14,17}]octadeca-11(18),12,14(17), 15-tetraen-8-one] |
| 19 | COc1cc(C(=O)N2C[C@H](N)[C@@H]3CC[C@H]2C3)cc2nc(-c3cc4ccc5nc4n3CCCCC[C@]3(F)C[C@H]3C(=O)N[C@@H]5C)n(C3CC3)c12 [Example 816, (2~{R},5~{S},7~{S})-14-[5-[(1~{S},4~{R},5~{R})-4-amino-2-azabicyclo[3.2.1]octane-2-carbonyl]-1-cyclopropyl-7-methoxy-benzimidazol-2-yl]-7-fluoro-2-methyl-3,13,19-triazatetracyclo[11.5.2.0^ {5,7}.0^{16,20}]icosa-1 (18),14,16,19-tetraen-4-one] |

The next lines start with the compound.

| SMILES | IC50 [nM] |
| --- | --- |
| C[C@@H]1C[C@H]1n1c(-c2cc3ccc4nc3n2CCCCC[C@@H]2C[C@H]2C(=O)N[C@@H]4C)nc2cc(C(=O)N[C@H]3CNCC[C@@H]3F)c(F)cc21 [Example 416, 6-fluoro-~{N}-[(3~{S},4~{S})-4-fluoro-3-piperidyl]-1-[(1~{R},2~{R})-2-methylcyclopropyl]-2-[(2~{R},5~{R},7~{R})-2-methyl-4-oxo-3,13,19-triazatetracyclo[11.5.2.0^{5,7}.0^{16,20}]icosa-1(19),14,16(20),17-tetraen-14-yl]benzimidazole-5-carboxamide] | 34 |
| COc1cc(C(=O)N2[C@H]3CC[C@@H]2[C@H](N)C3)cc2nc(-c3cc4ccc5nc4n3CCCCCOC(C)(C)C(=O)N[C@@H]5C)n(C)c12 [Example 21, (11~{R})-17-[5-[(1~{R},2~{R},4~{S})-2-amino-7-azabicyclo[2.2.1]heptane-7-carbonyl]-7-methoxy-1-methyl-benzimidazol-2-yl]-8,8,11-trimethyl-7-oxa-1,10,19-triazatricyclo[10.5.2.0^{15,18}]nonadeca-12(19),13,15(18),16-tetraen-9-one] | 63 |
| COc1cc(C(=O)N2[C@H]3CC[C@@H]2[C@H](N)C3)cc2nc(-c3cc4ccc5nc4n3C[C@H]3C[C@@H]3COCCC(=O)N[C@@H]5C)c(C)n12 [Example 323, (3~{S),5~{S},12~{R})-18-[7-[(1~{R},2~{R},4~{S})-2-amino-7-azabicyclo[2.2.1]heptane-7-carbonyl]-5-methoxy-3-methyl-imidazo[1,2-a]pyridin-2-yl]-12-methyl-7-oxa-1,11,20-triazatetracyclo[11.5.2.0^{3,5}.0^{16,19}] icosa-13(20),14,16(19),17-tetraen-10-one] | 14 |
| COc1cc(C(=O)N2CCC[C@@H](N)C2)cc2nc(-c3cc4ccc5nc4n3CCCCCc3cccc(C)c3C(=O)N[C@@H]5C)n(C)c12 [Example 361, (2~{R})-17-[5-[(3~{R})-3-aminopiperidine-1-carbonyl]-7-methoxy-1-methyl-benzimidazol-2-yl]-2,6-dimethyl-3,16,22-triazatetracyclo[14.5.2.0^{5,10}.0^{19,23}] tricosa-1(22),5(10),6,8,17,19(23),20-heptaen-4-one] | 74 |
| COc1cc(C(=O)N2[C@H]3CC[C@@H]2[C@H](N)C3)cc2nc(-c3cc4ccc5nc4n3CCCCOCCC(=O)N[C@@H]5C)c(C)n12 [Example 321, (11~{R})-17-[7-[(1~{R},2~{R},4~{S})-2-amino-7-azabicyclo[2.2.1]heptane-7-carbonyl]-5-methoxy-3-methyl-imidazo[1,2-a]pyridin-2-yl]-11-methyl-6-oxa-1,10,19-triazatricyclo[10.5.2.0^{15,18}]nonadeca-12(19),13,15(18),16-tetraen-9-one] | 32 |
| COc1cc(C(=O)N2[C@H]3CC[C@@H]2[C@H](N)C3)cc2nc(-c3cc4ccc5nc4n3CCCCCCCC(=O)N(C)C5)n(C)c12 [Example 256, 17-[5-[(1~{R},2~{R},4~{S})-2-amino-7-azabicyclo[2.2.1]heptane-7-carbonyl]-7-methoxy-1-methyl-benzimidazol-2-yl]-10-methyl-1,10,19-triazatricyclo[10.5.2.0^{15,18}]nonadeca-12(19),13,15(18),16-tetraen-9-one] | 48 |
| COc1cc(C(=O)N2[C@H]3CC[C@@H]2[C@H](N)C3)cc2nc(-c3cc4ccc5nc4n3CCCCCn3nccc3C(=O)N[C@@H]5C)c(C)n12 [Example 32, (2~{R})-16-[7-[(1~{R},2~{R},4~{S})-2-amino-7-azabicyclo[2.2.1]heptane-7-carbonyl]-5-methoxy-3-methyl-imidazo[1,2-a]pyridin-2-yl]-2-methyl-3,8,9,15,21-pentazatetracyclo[13.5.2.0^{5,9}.0^{18,22}] docosa-1(21),5,7,16,18(22),19-hexaen-4-one] | 12 |
| Cc1nccc2c1C(=O)N[C@H](C)c1ccc3cc(-c4nc5cc(C(=O)N[C@H]6CNCC[C@@H]6F)c(F)cc5n4C4CC4)n(c3n1)CCCCC2 [Example 396, 1-cyclopropyl-2-[(2~{R})-2,6-dimethyl-4-oxo-3,7,16,22-tetrazatetracyclo[14.5.2.0^{5,10}.0^{19,23}]tricosa-1(22),5(10),6,8,17,19(23),20-heptaen-17-yl]-6-fluoro-~{N}-[(3~{S},4~{S})-4-fluoro-3-piperidyl]benzimidazole-5-carboxamide] | 17 |
